Assay results reported in ChEMBL document CHEMBL5058645, “Data for DCP probe JNJ-6204” (2022).

Columns and labels:
[1] = target: Serine/threonine-protein kinase MRCK beta (Homo sapiens) (UniProt Q9Y5S2); experiment: MRCKbeta(h) Kinase panel; settings: Compound concentration 1.0 uM, tested as the 2H-labelled form
[2] = target: Serine/threonine-protein kinase B-raf (Homo sapiens) (UniProt P15056); experiment: B-Raf(h) Kinase panel; settings: Compound concentration 1.0 uM, tested as the 2H-labelled form
[3] = target: Interferon-induced, double-stranded RNA-activated protein kinase (Homo sapiens) (UniProt P19525); experiment: PKR(h) Kinase panel; settings: Compound concentration 1.0 uM, tested as the 2H-labelled form
[4] = target: Phosphatidylinositol 4-phosphate 5-kinase type-1 alpha (Homo sapiens) (UniProt Q99755); experiment: PIP5K1a(h) Kinase panel; settings: Compound concentration 1.0 uM, tested as the 2H-labelled form
[5] = target: Histamine H2 receptor (Homo sapiens) (UniProt P25021); settings: Compound concentration 10.0 uM, tested as the 2H-labelled form
[6] = target: Serine/threonine-protein kinase NIM1 (Homo sapiens) (UniProt Q8IY84); experiment: NIM1(h) Kinase panel; settings: Compound concentration 1.0 uM, tested as the 2H-labelled form
[7] = target: Mitogen-activated protein kinase 11 (Homo sapiens, UniProt Q15759); experiment: SAPK2b(h) Kinase panel; settings: Compound concentration 1.0 uM, tested as the 2H-labelled form
[8] = target: SNF-related serine/threonine-protein kinase (Homo sapiens) (UniProt Q9NRH2); experiment: SNRK(h) Kinase panel; settings: Compound concentration 1.0 uM, tested as the 2H-labelled form
[9] = target: Kappa-type opioid receptor (Homo sapiens) (UniProt P41145); settings: Compound concentration 10.0 uM, tested as the 2H-labelled form
[10] = target: cGMP-dependent protein kinase 1 (Homo sapiens) (UniProt Q13976); experiment: PKG1beta (h) Kinase panel; settings: Compound concentration 1.0 uM, tested as the 2H-labelled form
[11] = target: Receptor-interacting serine/threonine-protein kinase 1 (Homo sapiens) (UniProt Q13546); experiment: RIPK1(h) Kinase panel; settings: Compound concentration 1.0 uM, tested as the 2H-labelled form
[12] = target: Cytoplasmic tyrosine-protein kinase BMX (Homo sapiens) (UniProt P51813); experiment: Bmx(h) Kinase panel; settings: Compound concentration 1.0 uM, tested as the 2H-labelled form
[13] = target: Proto-oncogene tyrosine-protein kinase Src (Homo sapiens) (UniProt P12931); experiment: cSRC(h) Kinase panel; settings: Compound concentration 1.0 uM, tested as the 2H-labelled form
Sequence of Proto-oncogene tyrosine-protein kinase Src (Homo sapiens) (P12931 2-536 limits assumed): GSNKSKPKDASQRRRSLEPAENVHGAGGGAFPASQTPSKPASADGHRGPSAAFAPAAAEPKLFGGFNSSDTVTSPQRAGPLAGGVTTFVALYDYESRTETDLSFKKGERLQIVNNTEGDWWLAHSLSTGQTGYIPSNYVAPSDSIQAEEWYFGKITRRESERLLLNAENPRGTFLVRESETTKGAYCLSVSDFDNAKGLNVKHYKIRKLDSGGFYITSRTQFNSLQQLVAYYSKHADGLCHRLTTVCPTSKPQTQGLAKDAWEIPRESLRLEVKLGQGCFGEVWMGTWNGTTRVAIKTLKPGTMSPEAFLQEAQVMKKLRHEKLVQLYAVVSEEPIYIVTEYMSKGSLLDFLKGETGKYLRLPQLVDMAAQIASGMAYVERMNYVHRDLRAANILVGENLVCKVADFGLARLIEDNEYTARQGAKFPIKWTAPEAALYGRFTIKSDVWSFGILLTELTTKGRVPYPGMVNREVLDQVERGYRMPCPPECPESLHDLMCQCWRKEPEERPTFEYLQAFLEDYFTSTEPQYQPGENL

[14] = target: Calcium/calmodulin-dependent protein kinase kinase 1 (Homo sapiens) (UniProt Q8N5S9); experiment: CaMKK1(h) Kinase panel; settings: Compound concentration 1.0 uM, tested as the 2H-labelled form
[15] = target: Serine/threonine-protein kinase D1 (Homo sapiens) (UniProt Q15139); experiment: PKCmu (h) Kinase panel; settings: Compound concentration 1.0 uM, tested as the 2H-labelled form
[16] = target: Beta-adrenergic receptor kinase 1 (Homo sapiens) (UniProt P25098); experiment: GRK2(h) Kinase panel; settings: Compound concentration 1.0 uM, tested as the 2H-labelled form
Sequence of Beta-adrenergic receptor kinase 1 (Homo sapiens) (P25098 whole entry): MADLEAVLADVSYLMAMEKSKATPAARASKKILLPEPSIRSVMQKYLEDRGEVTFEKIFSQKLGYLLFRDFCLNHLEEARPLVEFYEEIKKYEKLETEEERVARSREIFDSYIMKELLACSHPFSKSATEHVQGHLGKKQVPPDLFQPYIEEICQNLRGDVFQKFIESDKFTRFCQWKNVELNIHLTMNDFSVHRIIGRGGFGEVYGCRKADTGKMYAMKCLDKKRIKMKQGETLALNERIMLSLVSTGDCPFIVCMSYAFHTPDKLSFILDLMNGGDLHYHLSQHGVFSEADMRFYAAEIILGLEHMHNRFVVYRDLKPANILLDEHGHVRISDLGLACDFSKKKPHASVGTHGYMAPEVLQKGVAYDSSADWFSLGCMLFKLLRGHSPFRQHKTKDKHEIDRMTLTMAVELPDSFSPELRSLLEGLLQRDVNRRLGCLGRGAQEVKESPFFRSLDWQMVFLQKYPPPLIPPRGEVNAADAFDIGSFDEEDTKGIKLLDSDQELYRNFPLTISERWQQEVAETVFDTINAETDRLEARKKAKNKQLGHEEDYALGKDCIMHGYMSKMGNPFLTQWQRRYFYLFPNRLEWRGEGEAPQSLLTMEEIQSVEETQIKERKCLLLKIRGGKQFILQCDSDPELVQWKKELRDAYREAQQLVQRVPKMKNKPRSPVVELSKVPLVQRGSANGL

[17] = target: Myosin light chain kinase (Homo sapiens) (UniProt Q32MK0); experiment: MLCK(h) Kinase panel; settings: Compound concentration 1.0 uM, tested as the 2H-labelled form
[18] = target: Protein kinase C theta type (Homo sapiens) (UniProt Q04759); experiment: PKCtheta (h) Kinase panel; settings: Compound concentration 1.0 uM, tested as the 2H-labelled form
Sequence of Protein kinase C theta type (Homo sapiens) (Q04759 whole entry, looked up): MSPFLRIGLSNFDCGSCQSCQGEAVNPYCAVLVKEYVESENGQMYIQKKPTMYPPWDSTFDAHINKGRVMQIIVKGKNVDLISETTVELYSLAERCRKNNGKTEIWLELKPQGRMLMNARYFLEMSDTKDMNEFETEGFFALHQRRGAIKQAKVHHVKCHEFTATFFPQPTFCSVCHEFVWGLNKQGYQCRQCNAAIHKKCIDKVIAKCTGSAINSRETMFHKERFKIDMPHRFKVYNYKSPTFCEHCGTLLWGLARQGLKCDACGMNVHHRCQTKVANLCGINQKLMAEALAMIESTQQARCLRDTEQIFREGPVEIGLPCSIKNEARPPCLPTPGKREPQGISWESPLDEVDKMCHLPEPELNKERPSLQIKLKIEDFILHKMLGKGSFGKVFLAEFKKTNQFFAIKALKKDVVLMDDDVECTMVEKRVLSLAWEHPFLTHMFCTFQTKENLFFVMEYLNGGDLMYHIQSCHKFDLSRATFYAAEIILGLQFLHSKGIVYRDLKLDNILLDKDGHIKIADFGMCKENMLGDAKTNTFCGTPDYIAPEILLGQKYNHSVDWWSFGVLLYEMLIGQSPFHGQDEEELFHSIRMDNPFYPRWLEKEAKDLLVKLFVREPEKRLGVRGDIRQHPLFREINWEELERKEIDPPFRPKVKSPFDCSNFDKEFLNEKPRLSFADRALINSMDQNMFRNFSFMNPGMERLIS

[19] = target: 5'-AMP-activated protein kinase catalytic subunit alpha-1 (Homo sapiens) (UniProt Q13131); experiment: AMPKalpha1(h) Kinase panel; settings: Compound concentration 1.0 uM, tested as the 2H-labelled form
[20] = target: Testis-specific serine/threonine-protein kinase 4 (Homo sapiens) (UniProt Q6SA08); experiment: TSSK4(h) Kinase panel; settings: Compound concentration 1.0 uM, tested as the 2H-labelled form
[21] = target: Mitogen-activated protein kinase 9 (Homo sapiens) (UniProt P45984); experiment: JNK2alpha2(h) Kinase panel; settings: Compound concentration 1.0 uM, tested as the 2H-labelled form
[22] = target: Serine/threonine-protein kinase SIK1 (Homo sapiens) (UniProt P57059); experiment: SIK(h) Kinase panel; settings: Compound concentration 1.0 uM, tested as the 2H-labelled form
[23] = target: Death-associated protein kinase 1 (Homo sapiens) (UniProt P53355); experiment: DAPK1(h) Kinase panel; settings: Compound concentration 1.0 uM, tested as the 2H-labelled form
[24] = target: Activin receptor type-1B (Homo sapiens) (UniProt P36896); experiment: ALK4(h) Kinase panel; settings: Compound concentration 1.0 uM, tested as the 2H-labelled form
Sequence of Activin receptor type-1B (Homo sapiens) (P36896 whole entry): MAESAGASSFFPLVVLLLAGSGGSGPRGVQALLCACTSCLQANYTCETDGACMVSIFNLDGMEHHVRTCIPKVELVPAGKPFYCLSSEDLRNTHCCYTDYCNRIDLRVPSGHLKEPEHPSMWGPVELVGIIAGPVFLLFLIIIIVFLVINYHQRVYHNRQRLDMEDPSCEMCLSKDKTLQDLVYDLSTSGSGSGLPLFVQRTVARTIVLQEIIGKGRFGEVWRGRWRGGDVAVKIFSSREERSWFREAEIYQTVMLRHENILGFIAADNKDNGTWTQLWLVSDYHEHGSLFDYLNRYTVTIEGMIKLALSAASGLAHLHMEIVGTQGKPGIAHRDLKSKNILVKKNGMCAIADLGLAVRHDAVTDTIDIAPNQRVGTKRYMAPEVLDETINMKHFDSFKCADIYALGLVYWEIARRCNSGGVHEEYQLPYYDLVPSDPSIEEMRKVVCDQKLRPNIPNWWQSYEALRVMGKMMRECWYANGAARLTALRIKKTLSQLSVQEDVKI

[25] = target: Focal adhesion kinase 1 (Homo sapiens) (UniProt Q05397); experiment: FAK(h) Kinase panel; settings: Compound concentration 1.0 uM, tested as the 2H-labelled form
[26] = target: Alpha-2A adrenergic receptor (Homo sapiens) (UniProt P08913); settings: Compound concentration 10.0 uM, tested as the 2H-labelled form
[27] = target: MAP kinase-activated protein kinase 2 (Homo sapiens) (UniProt P49137); experiment: MAPKAP-K2(h) Kinase panel; settings: Compound concentration 1.0 uM, tested as the 2H-labelled form
[28] = target: Tyrosine-protein kinase CSK (Homo sapiens) (UniProt P41240); experiment: CSK(h) Kinase panel; settings: Compound concentration 1.0 uM, tested as the 2H-labelled form
[29] = target: Aurora kinase C (Homo sapiens) (UniProt Q9UQB9); experiment: Aurora-C(h) Kinase panel; settings: Compound concentration 1.0 uM, tested as the 2H-labelled form
[30] = target: Tau-tubulin kinase 1 (Homo sapiens) (UniProt Q5TCY1); experiment: TTBK1(h) Kinase panel; settings: Compound concentration 1.0 uM, tested as the 2H-labelled form
[31] = target: Alpha-2B adrenergic receptor (Homo sapiens) (UniProt P18089); settings: Compound concentration 10.0 uM, tested as the 2H-labelled form
[32] = target: Transient receptor potential cation channel subfamily M member 7 (Homo sapiens) (UniProt Q96QT4); experiment: ChaK1(h) Kinase panel; settings: Compound concentration 1.0 uM, tested as the 2H-labelled form
[33] = target: Phosphatidylinositol 3-kinase C2 domain-containing subunit gamma (Homo sapiens) (UniProt O75747); experiment: PI3KC2g(h) Kinase panel; settings: Compound concentration 1.0 uM, tested as the 2H-labelled form
[34] = target: Eukaryotic elongation factor 2 kinase (Homo sapiens) (UniProt O00418); experiment: eEF-2K(h) Kinase panel; settings: Compound concentration 1.0 uM, tested as the 2H-labelled form
[35] = target: SRSF protein kinase 3 (Homo sapiens) (UniProt Q9UPE1); experiment: MSSK1(h) Kinase panel; settings: Compound concentration 1.0 uM, tested as the 2H-labelled form
[36] = target: Dual specificity tyrosine-phosphorylation-regulated kinase 1A (Homo sapiens) (UniProt Q13627); experiment: DYRK1A(h) Kinase panel; settings: Compound concentration 1.0 uM, tested as the 2H-labelled form
[37] = target: Maternal embryonic leucine zipper kinase (Homo sapiens) (UniProt Q14680); experiment: MELK(h) Kinase panel; settings: Compound concentration 1.0 uM, tested as the 2H-labelled form
[38] = target: Serine/threonine-protein kinase LATS2 (Homo sapiens) (UniProt Q9NRM7); experiment: LATS2(h) Kinase panel; settings: Compound concentration 1.0 uM, tested as the 2H-labelled form
Sequence of Serine/threonine-protein kinase LATS2 (Homo sapiens) (Q9NRM7 whole entry): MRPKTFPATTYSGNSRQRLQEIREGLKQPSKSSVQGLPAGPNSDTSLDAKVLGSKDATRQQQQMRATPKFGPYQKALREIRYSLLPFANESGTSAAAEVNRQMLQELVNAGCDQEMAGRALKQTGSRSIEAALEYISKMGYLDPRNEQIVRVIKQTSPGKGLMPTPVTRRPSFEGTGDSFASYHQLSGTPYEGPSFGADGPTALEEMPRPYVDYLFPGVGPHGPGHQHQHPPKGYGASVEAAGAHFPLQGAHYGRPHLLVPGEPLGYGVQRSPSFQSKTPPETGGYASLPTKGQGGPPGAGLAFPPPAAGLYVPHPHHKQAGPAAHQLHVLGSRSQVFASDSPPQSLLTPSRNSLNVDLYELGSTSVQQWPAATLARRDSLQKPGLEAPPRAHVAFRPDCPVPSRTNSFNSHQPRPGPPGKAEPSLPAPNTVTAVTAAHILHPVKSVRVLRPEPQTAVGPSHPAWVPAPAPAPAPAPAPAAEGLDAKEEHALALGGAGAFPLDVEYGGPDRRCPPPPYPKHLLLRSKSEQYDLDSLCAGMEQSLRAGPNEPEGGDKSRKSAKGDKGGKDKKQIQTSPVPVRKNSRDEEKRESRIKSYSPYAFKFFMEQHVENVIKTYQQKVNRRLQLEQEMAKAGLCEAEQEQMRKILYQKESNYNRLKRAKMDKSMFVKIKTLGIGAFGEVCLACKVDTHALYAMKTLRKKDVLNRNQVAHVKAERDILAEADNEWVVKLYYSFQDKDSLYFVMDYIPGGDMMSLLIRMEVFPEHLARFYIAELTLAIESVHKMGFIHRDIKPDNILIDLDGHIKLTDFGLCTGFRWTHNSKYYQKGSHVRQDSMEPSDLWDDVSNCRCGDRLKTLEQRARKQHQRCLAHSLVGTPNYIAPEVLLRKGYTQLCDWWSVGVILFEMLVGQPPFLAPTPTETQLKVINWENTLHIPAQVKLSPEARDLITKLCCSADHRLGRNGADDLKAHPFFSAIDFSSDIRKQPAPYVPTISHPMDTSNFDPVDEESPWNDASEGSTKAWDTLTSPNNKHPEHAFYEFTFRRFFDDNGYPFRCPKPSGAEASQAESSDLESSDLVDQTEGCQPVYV

[39] = target: MAPK/MAK/MRK overlapping kinase (Homo sapiens) (UniProt Q9UQ07); experiment: MOK(h) Kinase panel; settings: Compound concentration 1.0 uM, tested as the 2H-labelled form
[40] = target: Cyclin-dependent kinase 9 (Homo sapiens) (UniProt P50750); experiment: CDK9/cyclin T1(h) Kinase panel; settings: Compound concentration 1.0 uM, tested as the 2H-labelled form
[41] = target: Phosphatidylinositol 4-phosphate 5-kinase type-1 gamma (Homo sapiens) (UniProt O60331); experiment: PIP5K1g(h) Kinase panel; settings: Compound concentration 1.0 uM, tested as the 2H-labelled form
Sequence of Phosphatidylinositol 4-phosphate 5-kinase type-1 gamma (Homo sapiens) (O60331 whole entry): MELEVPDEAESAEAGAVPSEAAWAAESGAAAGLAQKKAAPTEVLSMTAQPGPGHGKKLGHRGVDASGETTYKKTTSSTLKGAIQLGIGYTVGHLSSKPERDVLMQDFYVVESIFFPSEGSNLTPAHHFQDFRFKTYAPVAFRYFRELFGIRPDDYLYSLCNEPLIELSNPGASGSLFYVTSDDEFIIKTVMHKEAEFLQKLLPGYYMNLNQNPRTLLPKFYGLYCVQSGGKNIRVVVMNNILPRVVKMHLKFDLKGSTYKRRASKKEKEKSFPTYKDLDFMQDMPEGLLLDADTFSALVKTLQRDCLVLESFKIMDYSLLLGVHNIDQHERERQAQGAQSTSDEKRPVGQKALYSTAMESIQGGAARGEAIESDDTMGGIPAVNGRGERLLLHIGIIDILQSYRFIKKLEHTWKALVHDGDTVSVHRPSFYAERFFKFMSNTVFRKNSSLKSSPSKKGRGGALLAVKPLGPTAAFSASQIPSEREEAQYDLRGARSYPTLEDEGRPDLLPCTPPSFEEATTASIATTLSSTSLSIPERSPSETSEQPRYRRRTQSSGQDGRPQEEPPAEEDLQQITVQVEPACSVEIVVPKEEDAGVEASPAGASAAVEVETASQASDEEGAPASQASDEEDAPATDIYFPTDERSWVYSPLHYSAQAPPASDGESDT

[42] = target: 5-hydroxytryptamine receptor 2B (Homo sapiens) (UniProt P41595); settings: Compound concentration 10.0 uM, tested as the 2H-labelled form
[43] = target: Death-associated protein kinase 3 (Homo sapiens) (UniProt O43293); experiment: ZIPK(h) Kinase panel; settings: Compound concentration 1.0 uM, tested as the 2H-labelled form
[44] = target: Death-associated protein kinase 2 (Homo sapiens) (UniProt Q9UIK4); experiment: DAPK2(h) Kinase panel; settings: Compound concentration 1.0 uM, tested as the 2H-labelled form
[45] = target: STE20/SPS1-related proline-alanine-rich protein kinase (Homo sapiens) (UniProt Q9UEW8); experiment: STK39(h) Kinase panel; settings: Compound concentration 1.0 uM, tested as the 2H-labelled form
[46] = target: Serine/threonine-protein kinase ULK1 (Homo sapiens) (UniProt O75385); experiment: ULK1(h) Kinase panel; settings: Compound concentration 1.0 uM, tested as the 2H-labelled form
[47] = target: Tyrosine-protein kinase Fer (Homo sapiens) (UniProt P16591); experiment: Fer(h) Kinase panel; settings: Compound concentration 1.0 uM, tested as the 2H-labelled form
[48] = target: Serine/threonine-protein kinase 25 (Homo sapiens) (UniProt O00506); experiment: STK25(h) Kinase panel; settings: Compound concentration 1.0 uM, tested as the 2H-labelled form
[49] = target: Muscarinic acetylcholine receptor M2 (Homo sapiens) (UniProt P08172); settings: Compound concentration 10.0 uM, tested as the 2H-labelled form
[50] = target: Ribosomal protein S6 kinase alpha-2 (Homo sapiens) (UniProt Q15349); experiment: Rsk3(h) Kinase panel; settings: Compound concentration 1.0 uM, tested as the 2H-labelled form
[51] = target: Cell division cycle 7-related protein kinase (Homo sapiens) (UniProt O00311); experiment: Cdc7/cyclinB1(h) Kinase panel; settings: Compound concentration 1.0 uM, tested as the 2H-labelled form
Sequence of Cell division cycle 7-related protein kinase (Homo sapiens) (O00311 whole entry, looked up): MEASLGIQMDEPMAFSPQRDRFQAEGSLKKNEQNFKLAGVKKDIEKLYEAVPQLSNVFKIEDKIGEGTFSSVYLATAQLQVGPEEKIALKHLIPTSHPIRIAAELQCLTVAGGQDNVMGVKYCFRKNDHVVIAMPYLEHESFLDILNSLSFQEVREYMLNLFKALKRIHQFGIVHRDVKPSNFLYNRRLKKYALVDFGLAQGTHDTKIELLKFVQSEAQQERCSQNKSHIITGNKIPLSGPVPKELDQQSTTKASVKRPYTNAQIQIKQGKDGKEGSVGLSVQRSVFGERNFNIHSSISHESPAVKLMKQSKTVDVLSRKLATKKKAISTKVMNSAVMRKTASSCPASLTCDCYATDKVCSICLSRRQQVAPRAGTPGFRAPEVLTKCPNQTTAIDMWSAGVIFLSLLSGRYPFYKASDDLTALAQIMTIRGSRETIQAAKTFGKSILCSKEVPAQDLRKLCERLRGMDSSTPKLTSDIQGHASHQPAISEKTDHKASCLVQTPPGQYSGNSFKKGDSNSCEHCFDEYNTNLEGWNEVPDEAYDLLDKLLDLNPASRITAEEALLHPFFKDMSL

Measured: inhibition

CC1(C)Cn2nc(-c3ccc(F)cn3)c(-c3ccnc4[nH]ncc34)c2CO1
inactive: [1] 2% | [2] 16% | [3] 4% | [4] -4% | [5] -1.3% | [6] 13% | [7] -3% | [8] 4% | [9] 12% | [10] 13% | [11] 5% | [12] 19% | [13] 15% | [14] 2% | [15] 13% | [16] -8% | [17] 19% | [18] 9% | [19] 0% | [20] 5% | [21] -2% | [22] -9% | [23] 10% | [24] 25% | [25] 1% | [26] 15.4% | [27] -1% | [28] -3% | [29] 7% | [30] 19% | [31] 2.83% | [32] 10% | [33] -4% | [34] 7% | [35] -8% | [36] 0% | [37] 9% | [38] 12% | [39] -9% | [40] -3% | [41] -1% | [42] 6.01% | [43] 13% | [44] -7% | [45] 11% | [46] 9% | [47] 20% | [48] 21% | [49] -0.4% | [50] -7% | [51] 10%
